Assays:
[1] = test system: inflammatory cytokines; assay: RT-PCR and ELISA of inflammatory cytokines after Pasteurella multocida infection; assay type: in vivo, C57BL/6 mice; settings: 24 hours after infection, lung tissues and serum
Procedure: The mouse lung tissue samples were collected, and the total RNA of mouse lung tissues was extracted according to the instructions of the total RNA extraction kit (Invitrogen). According to the instructions of a TaKaRa reverse transcription kit, cDNA was prepared and reverse transcribed with the general process as follows:
The process of qRT-PCR was carried out with reference to previous studies, and (3-actin was used as a reference gene to normalize the transcription level of the target gene. The specific primer sequences used are shown in Table 2. The relative expression level of the gene was calculated according to the equation 2^−(ΔΔCt), wherein ΔΔCt=(CT of the target gene−Ct of the internal reference) of the experimental group−(Ct of the target gene−Ct of the internal reference) of the control group.
ELISA samples were divided into serum samples and lung tissue homogenate samples. Among them, the process of collecting serum was collecting mouse whole blood from the eyeball, storing overnight at 4° C., centrifuging at 5000 rpm for 10 min, collecting the supernatant and storing it at −20° C. for later use. While the preparation process of the mouse lung homogenate was collecting lung tissues, adding 2 mL sterile normal saline to prepare a homogenate, then repeatedly freezing and thawing the homogenate in liquid nitrogen (5 min) and ice-water bath for 3 times, then centrifuging at 4° C. and 12000 rpm for 10 min, and collecting the supernatant for later use. According to the instructions of the kit, the serum and the supernatant of lung tissue homogenate as prepared were detected for IL-10, IL-4, IL-6, IL-10, TNF-α and IFN-γ (eBioscience).

[2] = test system: P. multocida cells; assay: SEM and TEM morphology of bacterial cells; assay type: cell-based, Pasteurella multocida; settings: MT 1, 2 or 3 mg/mL, 8, 12 or 16 hours
Procedure: The effect of melatonin on the morphologies of P. multocida cells were evaluated employing SEM and TEM. 1 mL of fresh Pasteurella multocida (1×10^9 CFU) at the logarithmic growth stage was added into 100 mL of fresh Martin liquid medium containing different concentrations (1, 2 or 3 mg/mL) of MT. MT-free DMSO was used as a solvent control group and ampicillin (100 μg/mL) was used as a positive control group. All cultures were shaken at 220 rpm in a shaker at 37° C. for 8 hours, 12 hours or 16 hours. The bacterial samples were centrifuged at 3000 r/min for 10 minutes, the supernatant was removed, and cells were collected and washed with PBS for 3 times. Then the cells were fixed with a fixation solution of 2.5% fresh glutaraldehyde for 6 hours, and washed with PBS for 3 times, each time for 10 minutes. Subsequently, the SEM samples were dehydrated with 50%, 70%, 80% and 90% ethanol for 15 minutes respectively, and then dehydrated with 100% ethanol for 3 times, each time for 30 minutes. Ethanol was removed by washing with tert-butyl alcohol for three times, each time for 30 minutes. The samples were dried by a freeze dryer and plated with 10 nm of gold film by an ion sputtering device. The samples were examined using a field scanning electron microscope (FESEM, Hitch SU8010).
The TEM samples were fixed with 1%-2% […] for 2-3 hours, and washed with […] 3 times, each time for 10 minutes. The samples were dehydrated with 30%, 50%, 70%, 80% and 90% ethanol for 20 minutes respectively, and then dehydrated with 100% ethanol 3 times, each time for 30 minutes. Ethanol was replaced with acetone three times, each time for 30 minutes. The bacterial samples were placed on a copper grid with a formvar membrane, and negatively stained with phosphotungstic acid (2% v/v, pH=6.7). The surface area of the sample was less than 0.2 mm×0.2 mm, and slice thickness was between 50 and 90 nm (Lycra UC7). The samples were detected by TEM (Hitachi H-7650) at 80 kV, and photographs of the samples were taken by a Gatan832 CCD camera (Gatan). […]

[3] = test system: Pasteurella multocida; assay: Leakage of bacterial cell contents; assay type: cell-based; settings: MT 1-10 mg/mL, 12 h
Procedure: 1 mL of Pasteurella multocida (1×10^9 CFU) at the logarithmic growth stage was added into 100 mL of fresh and sterile Martin broth medium containing different concentrations (1 mg/mL, 2 mg/mL, 3 mg/mL, 4 mg/mL, 6 mg/mL, 8 mg/mL and 10 mg/mL) of MT. Melatonin-free DMSO was used as a solvent control group, ampicillin (100 μg/mL) was used as a positive control group, and bacterial cells were cultured in a shaker at 37° C. and 220 rpm for 12 h. Thereafter, 1 mL of the bacterial solution was taken and centrifuged at 3000 r/min for 10 minutes, and the supernatant and precipitated cells were collected, respectively. At the same time, 2.5 mmol/mL of o-nitrophenyl-β-D-galactopyranoside (ONPG) and Pasteurella multocida were added to detect β-galactosidase. The concentrations of protein, alkaline phosphatase (AKP) and reducing sugar in the supernatant were determined sequentially using respective determination kits. The β-galactosidase in the supernatant was determined by measuring the optical density at 420 nm (OD420). Each experiment was carried out for three times, and each group was set in triplicate.

[4] = test system: Pasteurella multocida; assay: Treatment of Pasteurella multocida infection by melatonin in mice; assay type: in vivo, C57BL/6 mice; settings: intraperitoneal at 30 minutes, 6, 12 and 18 hours after infection
Procedure: Mice were randomly divided into four groups (10 mice in each group) as described in #1, described above. In the experimental group, after infection with 2.2×10^5 CFU of Pasteurella multocida through intraperitoneal injection, MT was injected intraperitoneally for four times, with the first injection 30 minutes after Pasteurella multocida infection, then the injection was performed once every 6 hours, for three times in total. Control mice were given an equal amount of DMSO at the same four time points. Subsequently, the survival rate of mice within 7 days was recorded. At the same time, mice were euthanized at 12 h, 16 h, 24 h and 32 h after infection to collect tissue and serum samples for later ELISA and bacterial count analysis.
In order to measure the colonization of mouse lung bacteria before and after melatonin treatment, the lung tissues of mice were collected 24 hours and 32 hours after infection. The tissues were homogenized under aseptic conditions, and the bacterial content was determined by continuous dilution of 10 times in saline. These different dilutions were coated on the Martin broth agar in triplicate and incubated in a constant-temperature incubator at 37° C. for 24 hours to count the bacterial CFU.

## COc1ccc2[nH]cc(CCNC(C)=O)c2c1 [melatonin, N-acetyl-5-methoxytryptamine]
[1]
  expression of IFN-γ: significantly reduced
  expression of IL-6: significantly reduced
  expression of TNF-α: significantly reduced
  transcription and expression of IL-4: promoted
  transcription and expression of IL-10: promoted
[2]; FIG. 10
  cell morphology in SEM analysis: many holes passing through the OM, peptidoglycan (PG) layers and CM
[2]; FIG. 11
  cell morphology in TEM image: obvious cytoplasmic vacuolization
[3]; OD420, FIG. 7
  activity of extracellular β-galactosidase: increase
[3]; supernatant, FIG. 4
  content of extracellular proteins: increase
[3]; supernatant, FIG. 6
  content of extracellular alkaline phosphatase: increase
[3]; supernatant, FIG. 8
  content of extracellular reducing sugar: increase
[3]; FIG. 5
  activity of extracellular ATPase: increase
[4]; FIG. 35
  survival rate: improving the survival rate
[4]; FIG. 36
  bacterial colonization in mouse lungs: reducing bacterial colonization

From patent publication US20210353595A1, “USE OF MELATONIN IN PREPARATION OF MEDICAMENT FOR INHIBITING AND/OR KILLING BACTERIUM” (priority 2020, published 2021)
